What all share (format): cell-based
One assay has as its system S. aureus. Put plainly: Preservative efficacy test (PET), log reduction of S. aureus. Particulars: 24 hours, PET Screen International. As to the method:
(§1) The antimicrobial activity and stability of the formulations shown in Table 1A below, which contain either 0.1 or 0.2 (w/v %) of Compound 1 were evaluated. Table 1A also contains an emulsion formulation (Formulation C) consisting of Cyclosporin and Compound 1. Table 1B constitutes overall standard preservative efficacy test (PET Screen International) results along with the results of a visual assessment of physical stability of the emulsions. […] Histograms for Formulation B, showing the initial particle size measurements as well as 60 weeks, can be seen in FIGS. 1A & 1B. Similarly, histograms for Formulation C, containing 0.05% Cyclosporin, showing the initial particle size measurements as well as at 62 weeks, can be seen in FIGS. 2A & 2B. […] The microbiological evaluation was conducted by determining the extent to which the emulsions reduced an initial population of about 10^6 cfu/mL microorganisms over time. The abbreviation “cfu” means colony forming unit. […] Overall EPA requirement of preservation in all tested formulations was achieved. The microbiology results are provided in greater detail in Table 1C, where the results of the evaluation of five microorganisms are provided.

The next assay relates to E. coli. The experiment in a line: Preservative efficacy test (PET), log reduction of E. coli. Particulars: 24 hours, PET Screen International. As to the method:
as §1

For another assay, the system named is P. aeruginosa. The experiment in a line: Preservative efficacy test (PET), log reduction of P. aeruginosa. Particulars: 24 hours, PET Screen International. As to the method: as §1
In another assay the test system is C. albicans. Put plainly: Preservative efficacy test (PET), log reduction of C. albicans. Particulars: 7 days, PET Screen International. As to the method:
as §1

“sodium coco-diimonium chloride phosphate [Compound 1]”: the log reductions with S. aureus (0.1% Compound 1 emulsion), in the assay on S. aureus (0.2% Compound 1 emulsion), in the assay with E. coli (0.1% Compound 1 emulsion), in the assay with E. coli (0.2% Compound 1 emulsion), with P. aeruginosa (0.1% Compound 1 emulsion) and in the assay on P. aeruginosa (0.2% Compound 1 emulsion) was 5 log throughout. Also, the log reductions result in the assay with C. albicans (0.1% Compound 1 emulsion) and in the assay on C. albicans (0.2% Compound 1 emulsion) was “approximately 5 log” throughout.

These data come from patent US20090298956A1, “SELF-PRESERVED EMULSIONS” (priority 2008, published 2009).
